According to US8772509B2, “Indole compounds as positive allosteric modulators of the muscarinic receptor” (Vanderbilt University, priority 2010, dated 2014):

Biological target: T1, mAChR M1 (UniProt P08482)
T1 sequence (P08482 1-460): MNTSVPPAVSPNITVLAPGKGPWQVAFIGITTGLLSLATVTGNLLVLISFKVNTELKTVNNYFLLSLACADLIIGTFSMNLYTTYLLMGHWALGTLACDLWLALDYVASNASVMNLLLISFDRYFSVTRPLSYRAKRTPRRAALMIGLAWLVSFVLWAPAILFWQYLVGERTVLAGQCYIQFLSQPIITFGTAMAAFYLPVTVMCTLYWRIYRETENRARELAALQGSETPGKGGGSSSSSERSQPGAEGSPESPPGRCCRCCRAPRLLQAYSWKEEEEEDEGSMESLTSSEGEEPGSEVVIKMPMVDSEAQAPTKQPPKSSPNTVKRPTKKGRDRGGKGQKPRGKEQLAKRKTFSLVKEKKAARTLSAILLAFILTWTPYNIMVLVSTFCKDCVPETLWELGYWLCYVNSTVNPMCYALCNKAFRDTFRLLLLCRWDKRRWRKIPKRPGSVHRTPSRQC
Test: mAChR M1 cell-based functional assay (calcium mobilization, Fluo-4, FDSS)
Details: for Efficacy (% ACh maximum at 30 μM): maximal calcium flux response from curve fit or response at 30 μM compound, as % of the EC80 ACh response; for EC50: positive allosteric modulation of EC20 acetylcholine response, CHO-K1 cells expressing mAChR M1, read-out: Potency (EC50)

| Efficacy (% ACh maximum at 30 μM) | EC50 | Compound |
| --- | --- | --- |
| 55% | 2.9 µM | O=C(CS(=O)(=O)c1cn(Cc2cccc(-c3ccncc3)c2)c2cc(F)cc(F)c12)Nc1ccccn1 [compound 14, 2-((4,6-difluoro-1-(3-(pyridin-4-yl)benzyl)-1H-indol-3-yl)sulfonyl)-N-(pyridin-2-yl)acetamide] |
| 56% | 5.1 µM | Cc1cc(NC(=O)CS(=O)(=O)c2cn(Cc3cccc(Cl)c3F)c3ccccc23)no1 [compound 26, 2-((1-(3-chloro-2-fluorobenzyl)-1H-indol-3-yl)sulfonyl)-N-(5-methylisoxazol-3-yl)acetamide] |
